Results taken from article PMC11721293 (JCI Insight, 2025).

tested on: SARS-CoV-2-nLUC; assay: microbe, parasite or virus in culture; type: cell-based; conditions: VeroE6; 15 μM GGTI; 24 h

Structure (SMILES) | effect on viral replication
Cc1nc[nH]c1CN1CCN(C(=O)N[C@@H](CC(C)C)C(=O)O)[C@@H](Cc2ccccc2)C1=O [GGTI2418] | no effect on viral replication

tested on: HEK293A2T2 cells; assay: not given; conditions: initial screening

Structure (SMILES) | CC50 [µM]
CN1CCC(CN2c3ccccc3Sc3ccccc32)C1 (stereo not shown) [NCGC00014482] | > 30
CN(C)CCCN1c2ccccc2Sc2ccccc21 [NCGC00015829] | > 30
CN1CCC[C@@H]1CCO[C@](C)(c1ccccc1)c1ccc(Cl)cc1 [NCGC00016710] | > 30
CN1CCCN([C@@H](c2ccccc2)c2ccc(Cl)cc2)CC1 [NCGC00018271] | > 30
CN1CCN(C(c2ccccc2)c2ccc(Cl)cc2)CC1 (stereo not shown) [NCGC00179384] | > 30
c1ccc2c(c1)Sc1ccccc1N2CC1CN2CCC1CC2 (stereo not shown) [NCGC00183046] | > 30

tested on: SARS-CoV-2; assay: not given; type: cell-based; conditions: not given

Structure (SMILES) | time-of-addition result
CN(C)C(=O)COC(=O)Cc1ccc(OC(=O)c2ccc(NC(=N)N)cc2)cc1 [camostat] | only E64d, and not camostat, was effective in blocking the entry step

tested on: VSV-SARS-CoV-2-S pseudovirus; assay: microbe, parasite or virus in culture; type: cell-based; conditions: not given

Structure (SMILES) | Max % [%]
CCc1ccc2c(c1)N(CC(C)CN(C)C)c1ccccc1S2.Cl (stereo not shown) [NCGC00014485] | 90.9
c1ccc2c(c1)Sc1ccccc1N2C[C@H]1CN2CCC1CC2 [NCGC00014679] | 100.0
CN1[C@@H]2CC[C@H]1CC(O[C@@H](c1ccccc1)c1ccc(Cl)cc1)C2 (stereo partly shown) [NCGC00015195] | 100.0
C(=C/c1ccccc1)/CN1CCN(C(c2ccccc2)c2ccccc2)CC1 [NCGC00015246] | 65.8
CN1CCC(=C2c3ccccc3C=Cc3ccccc32)CC1 [NCGC00015252] | 52.7
CN(C)CCOC(c1ccccc1)c1ccccc1 [NCGC00015335] | 17.9
Cc1ccccc1[C@@H](OCCN(C)C)c1ccccc1 [NCGC00015771] | 25.1
C[C@@H](CN1c2ccccc2Sc2ccccc21)N(C)C [NCGC00015817] | 87.0
COc1ccc(CN(CCN(C)C)c2ccccn2)cc1 [NCGC00015822] | 49.2
CN1CCC(OC(c2ccccc2)c2ccccc2)CC1 [NCGC00016395] | 51.1
CN1CCN(C(c2ccccc2)c2ccccc2)CC1 [NCGC00016421] | 58.1
OC(CCCN1CCCCC1)(c1ccccc1)c1ccccc1 [NCGC00016624] | 57.9
CN(C)CCN(Cc1ccc(Cl)cc1)c1ccccn1 [NCGC00016672] | 77.6
COc1ccc(CCN2CCC(Nc3nc4ccccc4n3Cc3ccc(F)cc3)CC2)cc1 [NCGC00016913] | 79.3
C[C@@H]1CN(C2CCC(C#N)(c3ccc(F)cc3)CC2)CC[C@]1(C(=O)O)c1ccccc1.Cl (stereo partly shown) [NCGC00016939] | 37.9
Cl.Cl.O=C(O)COCCN1CCN(C(c2ccccc2)c2ccc(Cl)cc2)CC1 (stereo not shown) [NCGC00016949] | 29.7
OCCOCCN1CCN([C@@H](c2ccccc2)c2ccc(Cl)cc2)CC1 [NCGC00018255] | 26.3

Structure (SMILES) | Max % [%]
Cc1cccc(CN2CCN([C@@H](c3ccccc3)c3ccc(Cl)cc3)CC2)c1 [NCGC00018296] | 54.8
CN(C)CC[C@@H](c1ccc(Br)cc1)c1ccccn1 [NCGC00162100] | 59.8
CN(C)CCOC(c1ccc(Cl)cc1)c1ccccn1 (stereo not shown) [NCGC00166141] | 35.5
Cc1cccn2c(=O)c(-c3nnn[n-]3)cnc12.[K+] [NCGC00167434] | 24.2
CC(C)c1ccc2oc3nc(N)c(C(=O)O)cc3c(=O)c2c1 [NCGC00167472] | 59.8
CN1CCCC(n2nc(Cc3ccc(Cl)cc3)c3ccccc3c2=O)CC1 (stereo not shown) [NCGC00177979] | 96.4
CN1CCC(=C2c3ccccc3CCc3cccnc32)CC1 [NCGC00182705] | 45.5
Clc1ccc(C(c2ccccc2)N2CCNCC2)cc1 (stereo not shown) [NCGC00345879] | 100.0
COc1ccc(CN2CCN([C@@H](c3ccccc3)c3ccc(Cl)cc3)CC2)c(OC)c1 [NCGC00346845] | 64.2
CN1CCC(N(c2ccccc2)c2ccc(OC(C)(C)C)cc2)CC1 [NCGC00346851] | 68.3
Clc1ccc([C@H](c2ccccc2)N2CCN(C3CCCCC3)CC2)cc1 [NCGC00347039] | 70.8
CC(C)N1CCN([C@@H](c2ccccc2)c2ccc(Cl)cc2)CC1 [NCGC00347044] | 90.9
FC(F)(F)CN1CCN([C@@H](c2ccccc2)c2ccc(Cl)cc2)CC1 [NCGC00351281] | 21.1
CN1CCN(C(c2ccc(Cl)cc2)c2ccc(Cl)cc2)CC1 [NCGC00351413] | 67.9
CCN1CCN(C2c3ccccc3-c3ccc(Br)cc32)CC1 (stereo not shown) [NCGC00351673] | 77.7
CN1CCC(N(c2ccccc2)c2ccccc2)CC1 [NCGC00351675] | 17.1
Clc1ccc(C(c2ccc(Cl)cc2)N2CCNCC2)cc1 [NCGC00354584] | 100.0

same assay, conditions: read-out: EC50

Structure (SMILES) | EC50 [µM]
CCc1ccc2c(c1)N(CC(C)CN(C)C)c1ccccc1S2.Cl (stereo not shown) [NCGC00014485] | 2.8
c1ccc2c(c1)Sc1ccccc1N2C[C@H]1CN2CCC1CC2 [NCGC00014679] | 1.5
CN1[C@@H]2CC[C@H]1CC(O[C@@H](c1ccccc1)c1ccc(Cl)cc1)C2 (stereo partly shown) [NCGC00015195] | 3.1
CN(C)CC[C@H](c1ccc(Cl)cc1)c1ccccn1 [NCGC00015227] | > 30
Clc1ccc(Cn2c(CN3CCCC3)nc3ccccc32)cc1 [NCGC00015243] | > 30
C(=C/c1ccccc1)/CN1CCN(C(c2ccccc2)c2ccccc2)CC1 [NCGC00015246] | > 30
CN1CCC(=C2c3ccccc3C=Cc3ccccc32)CC1 [NCGC00015252] | 12.3
CN(C)CCCN1c2ccccc2Sc2ccc(Cl)cc21 [NCGC00015273] | > 30
CC(C)(C(=O)O)c1ccc([C@@H](O)CCCN2CCC(C(O)(c3ccccc3)c3ccccc3)CC2)cc1 [NCGC00015453] | > 30
CN1CCC(=C2c3ccccc3CC(=O)c3sccc32)CC1 [NCGC00015580] | > 30
CCOC(=O)N1CCC(=C2c3ccc(Cl)cc3CCc3cccnc32)CC1 [NCGC00015619] | > 30
CN(C)CCN(Cc1cccs1)c1ccccn1 [NCGC00015704] | > 30
Cc1ccccc1[C@@H](OCCN(C)C)c1ccccc1 [NCGC00015771] | > 30
C[C@@H](CN1c2ccccc2Sc2ccccc21)N(C)C [NCGC00015817] | 4.5
COc1ccc(CN(CCN(C)C)c2ccccn2)cc1 [NCGC00015822] | > 30
CN1CCC(OC(c2ccccc2)c2ccccc2)CC1 [NCGC00016395] | 5.2
CN1CCN(C(c2ccccc2)c2ccccc2)CC1 [NCGC00016421] | 25.2
c1ccc(CN(CC2=NCCN2)c2ccccc2)cc1 [NCGC00016613] | > 30
OC(CCCN1CCCCC1)(c1ccccc1)c1ccccc1 [NCGC00016624] | 12.8
CN(C)CCN(Cc1ccc(Cl)cc1)c1ccccn1 [NCGC00016672] | 11.1
COc1ccc(CCN2CCC(Nc3nc4ccccc4n3Cc3ccc(F)cc3)CC2)cc1 [NCGC00016913] | 8.4
C[C@@H]1CN(C2CCC(C#N)(c3ccc(F)cc3)CC2)CC[C@]1(C(=O)O)c1ccccc1.Cl (stereo partly shown) [NCGC00016939] | > 30
Cl.Cl.O=C(O)COCCN1CCN(C(c2ccccc2)c2ccc(Cl)cc2)CC1 (stereo not shown) [NCGC00016949] | > 30
OCCOCCN1CCN([C@@H](c2ccccc2)c2ccc(Cl)cc2)CC1 [NCGC00018255] | > 100
Cc1cccc(CN2CCN([C@@H](c3ccccc3)c3ccc(Cl)cc3)CC2)c1 [NCGC00018296] | > 30
Cc1ccc(/C(=C/CN2CCCC2)c2ccccn2)cc1 [NCGC00024714] | > 30
OC(c1ccccc1)(c1ccccc1)C1CN2CCC1CC2 (stereo not shown) [NCGC00160492] | > 30

Structure (SMILES) | EC50 [µM]
CN(C)CC[C@@H](c1ccc(Br)cc1)c1ccccn1 [NCGC00162100] | 23.3
CC(C)(C)c1ccc(C(=O)CCCN2CCC(OC(c3ccccc3)c3ccccc3)CC2)cc1 [NCGC00164603] | > 30
NC1=NCC2c3ccccc3Cc3ccccc3N12 (stereo not shown) [NCGC00165791] | > 100
CN(C)CCOC(c1ccc(Cl)cc1)c1ccccn1 (stereo not shown) [NCGC00166141] | 26.3
Cc1cccn2c(=O)c(-c3nnn[n-]3)cnc12.[K+] [NCGC00167434] | > 30
CN1CCCC(n2nc(Cc3ccc(Cl)cc3)c3ccccc3c2=O)CC1 (stereo not shown) [NCGC00177979] | 4.3
COc1ccc(CN(CCN(C)C)c2ncccn2)cc1 [NCGC00178145] | > 30
CN(c1nccc(=O)[nH]1)C1CCN(c2nc3ccccc3n2Cc2ccc(F)cc2)CC1 [NCGC00181013] | > 30
CC(CN1c2ccccc2Sc2cccnc21)N(C)C (stereo not shown) [NCGC00181101] | > 30
Cc1ccc(C(=CCN2CCCC2)c2cccc(C=CC(=O)O)n2)cc1 [NCGC00182053] | > 30
CC(CN(C)C)CN1c2ccccc2S(=O)(=O)c2ccccc21 (stereo not shown) [NCGC00182075] | > 30
CN1CCC(=C2c3ccccc3CCc3cccnc32)CC1 [NCGC00182705] | > 30
O=C(CCCN1CCN(c2ccc(F)cc2)CC1)NC1c2ccccc2CSc2ccccc21 (stereo not shown) [NCGC00183837] | > 30
CN(C)CC/C=C1/c2ccccc2COc2ccc(CC(=O)O)cc21 [NCGC00263532] | > 30
Clc1ccc(C(c2ccccc2)N2CCNCC2)cc1 (stereo not shown) [NCGC00345879] | 3
COc1ccc(CN2CCN([C@@H](c3ccccc3)c3ccc(Cl)cc3)CC2)c(OC)c1 [NCGC00346845] | 22.5
CN1CCC(N(c2ccccc2)c2ccc(OC(C)(C)C)cc2)CC1 [NCGC00346851] | 14.9
Clc1ccc([C@H](c2ccccc2)N2CCN(C3CCCCC3)CC2)cc1 [NCGC00347039] | 4
CC(C)N1CCN([C@@H](c2ccccc2)c2ccc(Cl)cc2)CC1 [NCGC00347044] | 3.6
CC(=O)N1CCN([C@@H](c2ccccc2)c2ccc(Cl)cc2)CC1 [NCGC00347049] | > 100
FC(F)(F)CN1CCN([C@@H](c2ccccc2)c2ccc(Cl)cc2)CC1 [NCGC00351281] | > 100
CN1CCN(C(c2ccc(Cl)cc2)c2ccc(Cl)cc2)CC1 [NCGC00351413] | 2.6
CCN1CCN(C2c3ccccc3-c3ccc(Br)cc32)CC1 (stereo not shown) [NCGC00351673] | 28.1
CN1CCC(N(c2ccccc2)c2ccccc2)CC1 [NCGC00351675] | > 100
Clc1ccc(C(c2ccc(Cl)cc2)N2CCNCC2)cc1 [NCGC00354584] | 2
Clc1ccc(C(c2ccc(Cl)cc2)N2CCOCC2)cc1 [NCGC00354586] | > 100
C[C@@H]1O[C@@]2(CS1)CN1CCC2CC1 [NCGC00485995] | 17.9

tested on: Huh7 cells; assay: not given; conditions: initial screening

Structure (SMILES) | CC50 [µM]
CN1CCC(CN2c3ccccc3Sc3ccccc32)C1 (stereo not shown) [NCGC00014482] | > 30
C(=C/c1ccccc1)/CN1CCN(C(c2ccccc2)c2ccccc2)CC1 [NCGC00015246] | 22
CN(C)CCCN1c2ccccc2Sc2ccccc21 [NCGC00015829] | 18.4
CN1CCN(C(c2ccccc2)c2ccccc2)CC1 [NCGC00016421] | > 30
CN1CCC[C@@H]1CCO[C@](C)(c1ccccc1)c1ccc(Cl)cc1 [NCGC00016710] | > 30
Cl.Cl.O=C(O)COCCN1CCN(C(c2ccccc2)c2ccc(Cl)cc2)CC1 (stereo not shown) [NCGC00016949] | > 30
OCCOCCN1CCN([C@@H](c2ccccc2)c2ccc(Cl)cc2)CC1 [NCGC00018255] | > 30
CN1CCCN([C@@H](c2ccccc2)c2ccc(Cl)cc2)CC1 [NCGC00018271] | > 30
c1ccc2c(c1)Sc1ccccc1N2CC1CN2CCC1CC2 (stereo not shown) [NCGC00183046] | 26.3
Clc1ccc(C(c2ccccc2)N2CCNCC2)cc1 (stereo not shown) [NCGC00345879] | 28
COc1ccc(CN2CCN([C@@H](c3ccccc3)c3ccc(Cl)cc3)CC2)c(OC)c1 [NCGC00346845] | 24.6
CN1CCC(N(c2ccccc2)c2ccc(OC(C)(C)C)cc2)CC1 [NCGC00346851] | > 30
Clc1ccc([C@H](c2ccccc2)N2CCN(C3CCCCC3)CC2)cc1 [NCGC00347039] | 14.1
CC(=O)N1CCN([C@@H](c2ccccc2)c2ccc(Cl)cc2)CC1 [NCGC00347049] | > 30
FC(F)(F)CN1CCN([C@@H](c2ccccc2)c2ccc(Cl)cc2)CC1 [NCGC00351281] | > 30
CN1CCN(C(c2ccc(Cl)cc2)c2ccc(Cl)cc2)CC1 [NCGC00351413] | 12.9
CCN1CCN(C2c3ccccc3-c3ccc(Br)cc32)CC1 (stereo not shown) [NCGC00351673] | > 30
CN1CCC(N(c2ccccc2)c2ccccc2)CC1 [NCGC00351675] | > 30
Clc1ccc(C(c2ccc(Cl)cc2)N2CCOCC2)cc1 [NCGC00354586] | > 30
